{"source": "patent US20240148720A1", "about": "“Use of Histamine Antagonists and Glucocorticoid for Treating and Preventing Neurodegenerative Diseases” (City University of Hong Kong, priority 2022, published 2024)", "key": {"histamine H4 receptor": {"biological_target": "histamine H4 receptor (Homo sapiens, UniProt Q9H3N8)", "sequence (Q9H3N8 whole entry, species assumed)": "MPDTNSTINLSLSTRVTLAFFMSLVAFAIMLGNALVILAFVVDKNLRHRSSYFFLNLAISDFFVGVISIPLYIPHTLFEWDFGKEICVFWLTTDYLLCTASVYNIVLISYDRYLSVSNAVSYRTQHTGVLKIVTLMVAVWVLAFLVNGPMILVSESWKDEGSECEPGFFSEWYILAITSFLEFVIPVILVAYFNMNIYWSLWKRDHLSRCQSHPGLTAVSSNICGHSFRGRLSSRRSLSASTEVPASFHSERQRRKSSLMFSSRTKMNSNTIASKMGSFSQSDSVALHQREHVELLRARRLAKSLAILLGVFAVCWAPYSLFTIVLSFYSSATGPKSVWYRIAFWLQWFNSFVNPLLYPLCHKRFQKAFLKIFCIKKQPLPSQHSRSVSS", "details": "cited from earlier work"}, "[1]": {"details": "cited from earlier work"}, "hyperphosphorylated Tau": {"test_system": "hyperphosphorylated Tau", "test": "Anti-AT8 immunostaining of hyperphosphorylated Tau in hippocampus of 3xTg-AD mice", "details": "17-month-old 3xTg-AD mice"}, "APP/PS1 mice [2]": {"test_system": "APP/PS1 mice", "test": "Morris Water Maze test, APP/PS1 mice", "details": "8-month-old APP/PS1 mice; for escape latency to find the hidden platform: FIG. 6C"}, "APP/PS1 mice [3]": {"test_system": "APP/PS1 mice", "test": "Y-maze test, APP/PS1 mice", "details": "8-month-old APP/PS1 mice"}, "3xTg-AD mice [4]": {"test_system": "3xTg-AD mice", "test": "Barnes maze test, 3xTg-AD mice", "details": "17-month-old 3xTg-AD mice, VUF6002 2.5 mg/kg daily about 3 months"}, "STZ-treated mice [5]": {"test_system": "STZ-treated mice", "test": "Y-maze spontaneous alternation test, streptozocin-induced sporadic AD mouse model", "details": "STZ ICV mice; VUF6002 2.5 mg/kg i.p. daily for 21 days; FIG. 1B"}, "3xTg-AD mice [6]": {"test_system": "3xTg-AD mice", "test": "Y-maze test, 3xTg-AD mice", "details": "17-month-old 3xTg-AD mice; VUF6002 2.5 mg/kg daily about 3 months; FIG. 3B"}, "[7]": {"details": "cited from earlier work", "remark": "listed apart in the source"}, "STZ-treated mice [8]": {"test_system": "STZ-treated mice", "test": "Barnes maze test, streptozocin-induced sporadic AD mouse model", "details": "STZ ICV mice, VUF6002 2.5 mg/kg i.p. 21 days"}, "APP/PS1 mice [9]": {"test_system": "APP/PS1 mice", "test": "Novel object recognition test, APP/PS1 mice", "details": "8-month-old APP/PS1 mice; VUF6002 2.5 mg/kg i.p. daily 1 month; vs vehicle; FIG. 2C"}, "microglia": {"test_system": "microglia", "test": "Anti-IBA-1 immunostaining of microglia in hippocampal CA1 of 3xTg-AD mice", "details": "17-month-old 3xTg-AD mice"}, "[10]": {"details": "rats; 100 mg/kg; cited from earlier work"}, "3xTg-AD mice [11]": {"test_system": "3xTg-AD mice", "test": "Novel object recognition test, 3xTg-AD mice", "details": "17-month-old 3xTg-AD mice; VUF6002 2.5 mg/kg daily about 3 months; FIG. 3C"}}, "note": "Counter-ions that a name gives are not always drawn."}
{"smiles": "S=C(NC1CCCCC1)N1CCC(c2cnc[nH]2)CC1", "note": "[Thioperamide]", "values": [{"measurement": "binding to histamine receptors", "setting": "histamine H4 receptor", "value": "can bind to histamine H3 and H4 receptors"}]}
{"smiles": "CC(C)c1cc(N2CC[C@@H](N)C2)nc(N)n1", "note": "[JNJ39758979]", "values": [{"measurement": "severe side effects in humans", "setting": "[1]", "value": "may induces agranulocytosis in humans"}]}
{"smiles": "CN1CCN2c3ccccc3Cc3ccccc3C2C1", "note": "(stereo not shown) [Mianserin]", "values": [{"measurement": "binding to histamine receptors", "setting": "histamine H4 receptor", "value": "can bind to histamine H1, H3, and H4 receptors"}]}
{"smiles": "C[C@@H]1C[C@H]2[C@@H]3CCC4=CC(=O)C=C[C@]4(C)[C@@]3(F)[C@@H](O)C[C@]2(C)[C@@]1(O)C(=O)CO", "note": "[dexamethasone, (11β,16α)-9-Fluoro-11,17,21-trihydroxy-16-methylpregna-1,4-diene-3,20-dione]", "values": [{"measurement": "reduction of phosphorylated Tau (AT8) intensity, hippocampal subiculum area", "setting": "hyperphosphorylated Tau; dexamethasone from 14- to 17-month-old, FIG. 7C-7D", "value": 53.3, "unit": "%"}, {"measurement": "escape latency to find the hidden platform", "setting": "APP/PS1 mice [2]; dexamethasone 1 mg/kg i.p. one month, vs vehicle", "value": "does not significantly reduce the latency"}, {"measurement": "escape latency to find the hidden platform", "setting": "APP/PS1 mice [2]; dexamethasone 1 mg/kg i.p. two months", "value": "reverses the long-term memory deficits"}, {"measurement": "number of platform crosses, probe test", "setting": "APP/PS1 mice [2]; dexamethasone 1 mg/kg i.p. two months, vs vehicle, FIG. 6D", "value": "conspicuously increased number of platform crosses"}, {"measurement": "time spent in the target quadrant, probe test", "setting": "APP/PS1 mice [2]; dexamethasone 1 mg/kg i.p. two months, vs vehicle, FIG. 6E", "value": "conspicuously increased"}, {"measurement": "spontaneous alternation rate (short-term spatial working memory)", "setting": "APP/PS1 mice [3]; dexamethasone 1 mg/kg i.p. two months, FIG. 6A", "value": "prominently improves the short-term memory deficits"}]}
{"smiles": "CN1CCN(C(=O)c2nc3cc(Cl)ccc3[nH]2)CC1", "note": "[VUF6002, 1-[(5-chloro-1H-benzimidazol-2-yl)carbonyl]-4-methylpiperazine maleate]", "values": [{"measurement": "mean intensity of AT8 (p-Tau), CA1 region of hippocampus", "setting": "hyperphosphorylated Tau; VUF6002 2.5 mg/kg 3 months, FIG. 4C-4D", "value": "markedly reduces the mean intensity of AT8"}, {"measurement": "performance during the training phase of Barnes Maze test", "setting": "3xTg-AD mice [4]; FIG. 3D", "value": "marked improvement"}, {"measurement": "primary errors to find the target hole, probe test", "setting": "3xTg-AD mice [4]; vs vehicle, FIG. 3E", "value": "make fewer errors to find the target hole"}, {"measurement": "time spent in the target quadrant, probe test", "setting": "3xTg-AD mice [4]; vs vehicle, FIG. 3F", "value": "spend more time in the target quadrant"}, {"measurement": "spontaneous alternation rate (short-term spatial working memory)", "setting": "STZ-treated mice [5]", "value": "completely reversed"}, {"measurement": "short-term memory, performance on Y-maze", "setting": "3xTg-AD mice [6]", "value": "completely reverse the memory deficit"}, {"measurement": "severe side effect on animal models", "setting": "[7]", "value": "has not been reported to have a severe side effect"}, {"measurement": "long-term spatial memory during the training phase", "setting": "APP/PS1 mice [2]; VUF6002 2.5 mg/kg i.p. daily 1 month, FIG. 2D", "value": "markedly improved"}, {"measurement": "number of platform crosses, probe test", "setting": "APP/PS1 mice [2]; VUF6002 2.5 mg/kg i.p. daily 1 month, vs vehicle, FIG. 2E", "value": "make more attempts to swim across the original location of the platform"}, {"measurement": "time spent in the target quadrant, probe test", "setting": "APP/PS1 mice [2]; VUF6002 2.5 mg/kg i.p. daily 1 month, vs vehicle, FIG. 2F", "value": "spend more time on searching the platform in the target quadrant"}, {"measurement": "error to find the target hole, probe trial", "setting": "STZ-treated mice [8]; FIG. 1E", "value": "reduces the error to find the target hole"}, {"measurement": "time spent in target quadrant, probe trial", "setting": "STZ-treated mice [8]; FIG. 1F", "value": "markedly increases the time spent in target quadrant"}, {"measurement": "latency to get into the hidden escape box (long-term spatial memory)", "setting": "STZ-treated mice [8]; day 25 post injection, FIG. 1D", "value": "completely reverses the STZ-induced long-term memory deficits"}, {"measurement": "recognition index", "setting": "APP/PS1 mice [9]", "value": "significantly elevates"}, {"measurement": "intensity of Iba-1-positive microglia, hippocampal CA1 region", "setting": "microglia; VUF6002 2.5 mg/kg 3 months, FIG. 5A", "value": "markedly reduces the intensity of Iba-1-positive"}, {"measurement": "density of microglia, hippocampal CA1 region", "setting": "microglia; VUF6002 2.5 mg/kg, FIG. 5B", "value": "significantly reduces the density of microglia"}, {"measurement": "anti-inflammation effect", "setting": "[10]", "value": "revealed an anti-inflammation effect"}, {"measurement": "spontaneous alternation rate", "setting": "APP/PS1 mice [3]; VUF6002 2.5 mg/kg i.p. daily 1 month, vs vehicle, FIG. 2B", "value": "significantly elevates"}, {"measurement": "short-term memory, performance on novel object recognition test", "setting": "3xTg-AD mice [11]", "value": "completely reverse the memory deficit"}]}
